Ki data for 21 compounds are collected here from BindingDB's records for PubMed 8510008 (Eli Lilly, 1993).

Structures are written as SMILES.

Assay [1] concerns the target 5-hydroxytryptamine receptor 2A (Rattus norvegicus, UniProt P14842).
For assay [2], the target named is T1, 5-hydroxytryptamine receptor 2C (Homo sapiens, UniProt P28335).
T1 sequence (P28335 whole entry): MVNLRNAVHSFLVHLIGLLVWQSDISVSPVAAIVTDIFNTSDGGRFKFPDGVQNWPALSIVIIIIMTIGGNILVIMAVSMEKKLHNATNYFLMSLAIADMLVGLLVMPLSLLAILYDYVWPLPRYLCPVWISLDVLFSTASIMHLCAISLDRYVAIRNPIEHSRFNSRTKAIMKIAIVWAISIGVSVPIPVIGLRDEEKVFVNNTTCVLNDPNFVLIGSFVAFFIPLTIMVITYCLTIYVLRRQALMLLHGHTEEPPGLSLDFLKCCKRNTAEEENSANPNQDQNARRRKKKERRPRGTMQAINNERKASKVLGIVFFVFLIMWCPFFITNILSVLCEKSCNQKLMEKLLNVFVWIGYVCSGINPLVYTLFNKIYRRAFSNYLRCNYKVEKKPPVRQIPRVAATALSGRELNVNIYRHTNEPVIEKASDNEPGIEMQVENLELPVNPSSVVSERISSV

The target of assay [3] is 5-hydroxytryptamine receptor 2A (Sus scrofa, UniProt P50129).
Chain of 5-hydroxytryptamine receptor 2A (Sus scrofa, UniProt P50129) (P50129 whole entry): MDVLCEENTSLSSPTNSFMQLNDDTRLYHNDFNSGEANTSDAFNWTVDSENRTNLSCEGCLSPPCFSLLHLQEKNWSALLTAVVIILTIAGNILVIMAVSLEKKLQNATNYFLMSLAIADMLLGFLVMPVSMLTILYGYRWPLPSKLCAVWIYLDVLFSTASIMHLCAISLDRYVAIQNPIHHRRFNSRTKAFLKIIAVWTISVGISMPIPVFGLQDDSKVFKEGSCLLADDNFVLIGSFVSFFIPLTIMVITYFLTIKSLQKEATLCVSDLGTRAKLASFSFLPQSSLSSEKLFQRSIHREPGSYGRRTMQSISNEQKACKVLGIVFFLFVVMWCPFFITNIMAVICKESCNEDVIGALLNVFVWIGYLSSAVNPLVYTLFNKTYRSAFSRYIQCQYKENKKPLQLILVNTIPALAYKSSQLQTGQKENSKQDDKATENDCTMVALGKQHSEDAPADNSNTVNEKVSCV
The target in assay [4] is 5-hydroxytryptamine receptor 2A (Macaca mulatta, UniProt P50128).
Chain of 5-hydroxytryptamine receptor 2A (Macaca mulatta, UniProt P50128) (P50128 whole entry): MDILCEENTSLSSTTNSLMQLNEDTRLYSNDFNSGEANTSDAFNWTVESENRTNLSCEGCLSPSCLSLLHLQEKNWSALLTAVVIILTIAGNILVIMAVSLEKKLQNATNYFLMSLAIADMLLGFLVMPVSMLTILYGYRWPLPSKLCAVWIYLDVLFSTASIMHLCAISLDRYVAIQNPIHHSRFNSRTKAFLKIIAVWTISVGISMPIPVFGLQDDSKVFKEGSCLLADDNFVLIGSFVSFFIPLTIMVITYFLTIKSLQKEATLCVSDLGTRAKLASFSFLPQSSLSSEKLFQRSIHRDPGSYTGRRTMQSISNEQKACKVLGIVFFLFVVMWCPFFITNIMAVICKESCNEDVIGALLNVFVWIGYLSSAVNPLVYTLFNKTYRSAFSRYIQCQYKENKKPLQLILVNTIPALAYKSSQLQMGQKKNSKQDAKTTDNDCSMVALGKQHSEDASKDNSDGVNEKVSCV

Chain of 5-hydroxytryptamine receptor 2A (Rattus norvegicus, UniProt P14842) (P14842 whole entry): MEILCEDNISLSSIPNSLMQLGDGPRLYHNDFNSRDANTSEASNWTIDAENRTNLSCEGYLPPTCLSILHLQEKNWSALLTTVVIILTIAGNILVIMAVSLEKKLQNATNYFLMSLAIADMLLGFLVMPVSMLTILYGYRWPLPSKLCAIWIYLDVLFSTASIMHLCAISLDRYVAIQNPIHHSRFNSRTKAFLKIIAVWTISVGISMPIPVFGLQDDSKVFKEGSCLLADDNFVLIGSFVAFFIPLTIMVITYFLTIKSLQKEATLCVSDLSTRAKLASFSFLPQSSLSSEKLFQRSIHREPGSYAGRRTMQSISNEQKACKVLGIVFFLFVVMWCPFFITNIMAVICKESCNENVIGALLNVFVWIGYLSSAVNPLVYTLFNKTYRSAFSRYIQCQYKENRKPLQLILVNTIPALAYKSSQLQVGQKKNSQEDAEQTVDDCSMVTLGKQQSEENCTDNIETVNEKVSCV

As to `NCCc1c[nH]c2ccc(Br)cc12`, the Ki in assay [1] turned out to be 3240 nM; in assay [2] it was 1520 nM.
Take `CC(O)C(C)OC(=O)[C@@H]1C[C@@H]2c3cccc4c3c(cn4C)C[C@H]2N(C)C1` (stereo partly specified) [1,6-Dimethylergoline-8-carboxylic acid 2-hydroxy-1-methylpropyl ester]: the Ki in assay [1] was determined as 9.3 nM; in assay [3] it was 57.2 nM; in assay [4], 56.8 nM.
As for `COc1ccc2c(c1)c(CCN)cn2C(C)C` [1-Isopropyl-5-Methoxytryptamine], the values for the inhibitory constant (Ki) in assay [1] and in assay [3] were 3560 nM and 7290 nM, respectively.
On to `Cc1ccc2c(c1)c(CCN)cn2C(C)C` [1-Isopropyl-5-Methyltryptamine], for which the figures for the Ki in assay [1] and in assay [2] were 4680 nM and over 10000 nM, respectively.
On to `CC(C)n1cc(CCN)c2ccccc21` [1-Isopropyltryptamine], for which the results for the Ki in assay [1], in assay [3] and in assay [2] were 3860 nM, 5720 nM and 7030 nM, respectively.
Regarding `NCCc1c[nH]c2ccccc12` [1H-indole-3-ethanamine], the Ki in assay [1] was over 10000 nM; in assay [3], 3390 nM; in assay [2], 3000 nM.
As to `CC(C)n1cc(CCN)c2cc(Br)ccc21` [5-Br-T, 1-Isopropyl], the Ki in assay [1] was found to be 3440 nM; in assay [2], 6240 nM.
In the case of `Cc1ccc2[nH]cc(CCN)c2c1` [5-Methyl-tryptamine, 10], the figures for the Ki in assay [1] and in assay [2] were 6150 nM and 3220 nM, respectively.
Regarding `CC(CO)NC(=O)C1C=C2c3cccc4[nH]cc(c34)CC2N(C)C1` (stereo unspecified) [CAS_60-79-7], the Ki in assay [1] is 46.4 nM; in assay [3], 3.8 nM; in assay [4], 3.4 nM; in assay [2] it was 31.1 nM.
With `CC(O)C(C)OC(=O)C1CC2c3cccc4c3c(cn4C(C)C)CC2N(C)C1` (stereo unspecified) [CAS_60634-51-7], the Ki came out at 7.2 nM in assay [1], 40 nM in assay [3], 33.1 nM in assay [4] and 30.6 nM in assay [2].
As to `CC(O)C(C)OC(=O)C1CC2c3cccc4[nH]cc(c34)CC2N(C)C1` (stereo unspecified) [LY86057], the Ki in assay [1] came out at 55.9 nM; in assay [3], 4.6 nM; in assay [4], 3.2 nM; in assay [2], 3.3 nM.
Regarding `CN1C[C@H](C(=O)NC2CCCCC2)C[C@@H]2c3cccc4[nH]cc(c34)C[C@H]21` [LY-193525], the Ki is 41.6 nM in assay [1], 3.6 nM in assay [3] and 2.1 nM in assay [4].
In the same order, the values of `CC(C)Cn1cc2c3c(cccc31)[C@H]1C[C@@H](C(=O)OC(C)C(C)O)CN(C)[C@@H]1C2` (stereo partly specified) [LY-197541] are 242 nM, 148 nM and 153 nM.
With `COC1CCC(OC(=O)[C@@H]2C[C@@H]3c4cccc5[nH]cc(c45)C[C@H]3N(C)C2)CC1` (stereo partly specified) [LY-254239], the Ki in assay [1] is 42 nM.
With `CN1C[C@@H](NS(=O)(=O)N(C)C)C[C@@H]2c3cccc4c3c(cn4C)C[C@H]21` [MESULERGINE], the figures for the Ki in assay [3] and in assay [4] were 54.2 nM and 44.9 nM, respectively.
As for `CN1C[C@H](CNC(=O)OCc2ccccc2)C[C@@H]2c3cccc4c3c(cn4C)C[C@H]21` [METERGOLINE], the Ki in assay [3] stood at 0.37 nM; in assay [4], 0.82 nM.
`CN1C[C@H](C(=O)N[C@@H]2CCC[C@@H]2O)C[C@@H]2c3cccc4[nH]cc(c34)C[C@H]21` [N-[(1R,2S)-2-Hydroxycyclopentyl]-6-methylergoline-8-beta-carboxamide]: the affinity in assay [1] corresponds to a Ki of 64.4 nM.
On the same count and under the same terms, as for `COC1CCC(OC(=O)C2CC3c4cccc5c4c(cn5C(C)C)CC3N(C)C2)CC1` (stereo unspecified) [NSC_60262], the figure is 10.9 nM.
`CC(C)n1cc2c3c(cccc31)C1CC(C(=O)NC3CCCCC3)CN(C)C1C2` (stereo unspecified) [NSC_60740]: the Ki worked out at 6.9 nM in assay [1], 30.7 nM in assay [3] and 26.5 nM in assay [4].
As to `CC(C)n1cc2c3c(cccc31)C1CC(C(=O)NC3CCCC3O)CN(C)C1C2` (stereo unspecified) [NSC_132049], the results for the Ki in assay [1] and in assay [2] were 5.8 nM and 27.7 nM, respectively.
As for `COc1ccc2[nH]cc(CCN)c2c1` [tryptamine, 5-Methoxy], the Ki in assay [3] was 923 nM; in assay [2], 943 nM.
